Activity calls are given as the source filed them. No cut-off for these calls is given here.
How the values were obtained:
[1] = target: T1, Proteasome Macropain subunit MB1 (Homo sapiens, UniProt P28074); assay: Inhibition of human 20S proteosome beta5c subunit using Ac-WLA-AMC as substrate preincubated with compound for 30 mins followed by substrate addition and measured after 1 hr by fluorescence based analysis
T1 sequence (P28074 whole entry): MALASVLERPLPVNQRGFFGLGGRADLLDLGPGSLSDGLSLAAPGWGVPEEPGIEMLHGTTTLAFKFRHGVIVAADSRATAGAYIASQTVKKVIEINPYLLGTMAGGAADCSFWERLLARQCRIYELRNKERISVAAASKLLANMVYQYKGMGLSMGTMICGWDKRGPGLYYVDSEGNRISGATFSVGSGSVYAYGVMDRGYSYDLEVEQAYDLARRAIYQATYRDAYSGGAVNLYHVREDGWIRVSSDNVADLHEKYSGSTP

[2] = target: T2, Proteasome subunit beta type-8 (Homo sapiens, UniProt P28062); assay: Inhibition of human LMP7 beta -5i subunit using Ac-ANW-AMC as substrate preincubated with compound for 30 mins followed by substrate addition and measured after 1 hr by fluorescence based analysis
T2 sequence (P28062 whole entry): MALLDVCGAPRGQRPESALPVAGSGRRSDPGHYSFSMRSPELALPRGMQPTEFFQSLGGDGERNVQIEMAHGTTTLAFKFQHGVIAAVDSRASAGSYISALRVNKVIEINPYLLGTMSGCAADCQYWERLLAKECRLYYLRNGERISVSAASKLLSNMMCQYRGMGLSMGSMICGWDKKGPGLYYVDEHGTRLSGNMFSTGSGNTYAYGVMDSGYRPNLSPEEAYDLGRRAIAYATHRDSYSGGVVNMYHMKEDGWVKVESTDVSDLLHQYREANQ

Homo sapiens [3] = species on record: Homo sapiens; assay: Selectivity index, ratio of IC50 for inhibition of human 20S proteosome beta5c subunit using Ac-WLA-AMC as substrate to IC50 for inhibition of human LMP7 beta -5i subunit using Ac-ANW-AMC as substrate
[4] = Drug metabolism in human liver microsomes assessed as reactive metabolite formation by measuring dGSH trapping measured per mg of protein incubated for 60 mins in presence of NADPH by HPLC analysis; assay type: ADME, Microsome; conditions: 1 h
[5] = target: T3, Proteasome subunit beta type-9 (Homo sapiens, UniProt P28065); assay: Inhibition of human LMP2 beta-1i subunit using Ac-PAL-AMC as substrate preincubated with compound for 30 mins followed by substrate addition and measured after 1 hr by fluorescence based analysis
T3 sequence (P28065 whole entry): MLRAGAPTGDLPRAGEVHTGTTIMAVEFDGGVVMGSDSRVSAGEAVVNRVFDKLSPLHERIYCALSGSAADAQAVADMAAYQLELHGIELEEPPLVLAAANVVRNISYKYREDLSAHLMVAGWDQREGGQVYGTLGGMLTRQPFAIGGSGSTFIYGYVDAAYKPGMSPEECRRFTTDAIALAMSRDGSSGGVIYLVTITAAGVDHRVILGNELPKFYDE

[6] = Effect on hematological parameters in C57BL/6 mouse at 3 to 30 mg/kg, po administered for 9 days; assay type: toxicity, organism-based; conditions: in vivo, 216 h, dose 3-30 mg/kg, time 9 day
[7] = Microsomal stability in mouse liver microsome assessed as intrinsic clearance; assay type: ADME; conditions: liver microsomes, read-out: CLH
Mus musculus [8] = assay: Inhibition of NP30-IgG production in NP-OVA-induced po dosed C57BL/6 mouse model administered for 9 days by ELISA analysis; assay type: functional, organism-based; conditions: dose 3-30 mg/kg, time 9.0 day
Mus musculus [9] = assay: Reduction in NP30-specific IgG level in GCB of NP-OVA-induced C57BL/6 mouse model at 10 to 30 mg/kg, po administered for 9 days by flow cytometry analysis; assay type: functional, organism-based; conditions: dose 10-30 mg/kg, time 9.0 day
Plasma = assay: Reduction in NP30-specific IgG level in plasma of NP-OVA-induced C57BL/6 mouse model at 30 mg/kg, po administered for 9 days by ELISA analysis; assay type: functional, organism-based; conditions: time 9.0 day
[10] = Permeability of the compound by PAMPA assay; assay type: ADME; conditions: read-out: permeability
Homo sapiens [11] = species on record: Homo sapiens; assay: Selectivity index, ratio of IC50 for inhibition of human 20S proteosome beta5c subunit using Ac-WLA-AMC as substrate to IC50 for inhibition of human LMP2 beta-1i subunit using Ac-PAL-AMC as substrate

IC50 [1]	IC50 [2]	Ratio IC50 (Homo sapiens [3])	Drug metabolism [4]	IC50 [5]	microsomal CLint [7]	Papp [10]	Ratio IC50 (Homo sapiens [11])	SMILES	Activity [6]	inhibition (Mus musculus [8])	Activity (Mus musculus [9])	Activity (Plasma)
302 nM	8 nM	38	736 pmol/h	5 nM	–	–	–	O=C(N[C@@H](Cc1ccccc1)B(O)O)c1cn(C2CCCCC2)nn1	–	–	–	–
> 80000 nM	11200 nM	> 7	–	188 nM	–	–	–	CC(C)C[C@H](NC(=O)c1cc(C2CCCCC2)n(C)n1)B(O)O	–	–	–	–
4950 nM	655 nM	8	–	< 5 nM	–	–	–	O=C(N[C@H](B(O)O)C1CCC1)c1cn(C2CCCCC2)nn1	–	–	–	–
19500 nM	888 nM	22	–	226 nM	–	–	–	CC(C)C[C@H](NC(=O)c1cc(C2CCCCC2)nn1C)B(O)O	–	–	–	–
2980 nM	145 nM	21	–	9 nM	–	–	–	CC(C)C[C@H](NC(=O)c1cc(C2CCCCC2)on1)B(O)O	–	–	–	–
13100 nM	198 nM	66	–	< 5 nM	–	–	–	O=C(N[C@@H](CC1CCC1)B(O)O)c1cn(C2CCCCC2)nn1	–	–	–	–
> 80000 nM	18800 nM	> 4	–	132 nM	–	–	–	CC(C)C[C@H](NC(=O)c1cnn(C2CCCCC2)c1)B(O)O	–	–	–	–
44600 nM	257 nM	174	342 pmol/h	10 nM	99 µL/min/mg	11.9 ×10⁻⁶ cm/s	–	O=C(N[C@H](B(O)O)C1CCCCC1)c1cn(C2CCCCC2)nn1	Non-Toxic	Dose-Dependent Effect	Active	Active
2410 nM	8 nM	302	–	> 80000 nM	–	–	–	O=C(N[C@@H](Cc1coc2ccccc12)B(O)O)[C@@H]1C[C@H]2CC[C@@H]1O2	–	–	–	–
2950 nM	82 nM	36	–	10 nM	–	–	–	CC(C)C[C@H](NC(=O)c1ccc(C2CCCCC2)nn1)B(O)O	–	–	–	–
47300 nM	1210 nM	39	–	189 nM	–	–	–	Cc1c(C(=O)N[C@@H](CC(C)C)B(O)O)nnn1C1CCCCC1	–	–	–	–
5200 nM	132 nM	39	–	18 nM	–	–	–	O=C(N[C@H](B(O)O)C1CCCC1)c1cn(C2CCCCC2)nn1	–	–	–	–
15400 nM	63 nM	244	426 pmol/h	< 5 nM	–	–	–	O=C(N[C@@H](CC1CCCC1)B(O)O)c1cn(C2CCCCC2)nn1	–	–	–	–
3690 nM	192 nM	19	–	5 nM	–	–	–	CC(C)C[C@H](NC(=O)c1cc(C2CCCCC2)no1)B(O)O	–	–	–	–
19500 nM	130 nM	150	680 pmol/h	< 10 nM	–	–	–	O=C(N[C@@H](CC1CCCCC1)B(O)O)c1cn(C2CCCCC2)nn1	–	–	–	–
720 nM	75 nM	9.6	–	557 nM	–	–	1.29	COc1ccc([C@@H](O)[C@H](NC(=O)[C@H](C)NC(=O)CN2CCOCC2)C(=O)N[C@@H](CC2=CCCC2)C(=O)[C@@]2(C)CO2)cc1 [ZETOMIPZOMIB]	–	–	–	–
3220 nM	73 nM	44	1273 pmol/h	3 nM	–	–	1070	CC(C)C[C@H](NC(=O)c1cn(C2CCCCC2)nn1)B(O)O	–	–	–	–
6310 nM	1570 nM	4	–	62 nM	–	–	–	CC(C)C[C@H](NC(=O)c1cnn(C2CCCCC2)n1)B(O)O	–	–	–	–
